The text below walks through data of paper PMC5580309, “Molecular-scale features that govern the effects of O-glycosylation on a carbohydrate-binding module” (Chemical Science, 2015).

The series deals with T1, thermolysin (Bacillus thermoproteolyticus, UniProt P00800).
T1 sequence (P00800 233-548): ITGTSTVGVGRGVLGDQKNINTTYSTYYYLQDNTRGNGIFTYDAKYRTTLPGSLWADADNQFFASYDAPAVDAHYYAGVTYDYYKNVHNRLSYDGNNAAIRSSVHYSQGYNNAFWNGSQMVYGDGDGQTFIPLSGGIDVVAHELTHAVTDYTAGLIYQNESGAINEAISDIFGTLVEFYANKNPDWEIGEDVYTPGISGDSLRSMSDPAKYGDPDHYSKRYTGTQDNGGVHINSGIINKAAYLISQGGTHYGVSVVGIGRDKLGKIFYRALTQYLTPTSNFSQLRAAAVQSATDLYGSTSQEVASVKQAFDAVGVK
Kind of series: Proteolytic stability: half-life to thermolysin degradation. In kind it is in vitro ADME. The following applies: for Change in Half-Life to Thermolysin Degradation: glyco-variant minus its corresponding unglycosylated CBM (e.g. 2-1), *** not used in the correlation plot; for half-life: thermolysin (isolated protease), thermolysin degradation, mean of three trials ± SD, procedures as described previously (ESI ref 18). As for the experimental part:
All error bars reported are standard deviations of data achieved from three separate trials.
cellulose that were determined in accordance with our procedures as described previously 18.
The results are presented as mean of three trials ± SD. *Denotes an averaged value of four trials

Bridge positions count the residues as written; N and C are the ends. Square brackets hold non-standard residues; d marks the D form. Peptide text beside a SMILES is read from it. * marks the point of attachment. αMan = OC[C@H]1O[C@H](*)[C@@H](O)[C@@H](O)[C@@H]1O

For the molecule `CC[C@H](C)[C@@H]1NC(=O)CNC(=O)CNC(=O)[C@@H](NC(=O)[C@H](CCC(N)=O)NC(=O)CNC(=O)[C@H](Cc2ccc(O)cc2)NC(=O)[C@H](C)NC(=O)[C@H](CO[C@H]2O[C@H](CO)[C@@H](O)[C@H](O)[C@@H]2O)NC(=O)[C@H](CCC(N)=O)NC(=O)[C@@H](N)[C@@H](C)O)CSSC[C@@H]2NC(=O)[C@H]([C@@H](C)O)NC(=O)[C@H]([C@@H](C)O)NC(=O)CNC(=O)[C@H](CO)NC(=O)[C@H](C)NC(=O)[C@H](CSSC[C@@H](C(=O)N[C@@H](CC(C)C)C(=O)O)NC(=O)[C@H](CCC(N)=O)NC(=O)[C@H](CO)NC(=O)[C@H](Cc3ccc(O)cc3)NC(=O)[C@H](Cc3ccc(O)cc3)NC(=O)[C@@H]3CCCN3C(=O)[C@H](CC(N)=O)NC(=O)[C@H](CC(C)C)NC(=O)[C@H](C(C)C)NC(=O)[C@H](CCC(N)=O)NC2=O)NC(=O)[C@H](C(C)C)NC(=O)[C@H]([C@@H](C)O)NC(=O)[C@@H]2CCCN2C(=O)CNC(=O)[C@H](CO)NC(=O)[C@H](Cc2ccc(O)cc2)NC(=O)CNC1=O` [CBM variant 9] (H-TQS(αMan)AYGQCGGIGYSGPTVCASGTTCQVLNPYYSQCL-OH; disulfide 8-25, 19-35), the “Change in Half-Life to Thermolysin Degradation” value (shortened to “Change in Half-Life”) was determined as 25.8 min and the half-life (in general, the time needed for the level to fall by half in the phase considered) is 39 ± 3 min.
Turning to `CC[C@H](C)[C@@H]1NC(=O)CNC(=O)CNC(=O)[C@@H](NC(=O)[C@H](CCC(N)=O)NC(=O)CNC(=O)[C@H](C)NC(=O)[C@H](Cc2c[nH]cn2)NC(=O)[C@H](CO)NC(=O)[C@H](CCC(N)=O)NC(=O)[C@@H](N)[C@@H](C)O)CSSC[C@@H]2NC(=O)[C@H]([C@@H](C)O)NC(=O)[C@H]([C@@H](C)O)NC(=O)CNC(=O)[C@H](CO)NC(=O)[C@H](C)NC(=O)[C@H](CSSC[C@@H](C(=O)N[C@@H](CC(C)C)C(=O)O)NC(=O)[C@H](CCC(N)=O)NC(=O)[C@H](CO)NC(=O)[C@H](Cc3ccc(O)cc3)NC(=O)[C@H](Cc3ccc(O)cc3)NC(=O)[C@@H]3CCCN3C(=O)[C@H](CC(N)=O)NC(=O)[C@H](CC(C)C)NC(=O)[C@H](C(C)C)NC(=O)[C@H](CCC(N)=O)NC2=O)NC(=O)[C@H](C(C)C)NC(=O)[C@H]([C@@H](C)O)NC(=O)[C@@H]2CCCN2C(=O)CNC(=O)[C@H](CO)NC(=O)[C@H](Cc2ccc(O)cc2)NC(=O)CNC1=O` [CBM variant 10] (H-TQSHAGQCGGIGYSGPTVCASGTTCQVLNPYYSQCL-OH; disulfide 8-25, 19-35), the half-life is 4.8 ± 1.2 min.
Turning to `CC[C@H](C)[C@@H]1NC(=O)CNC(=O)CNC(=O)[C@@H](NC(=O)[C@H](CCC(N)=O)NC(=O)CNC(=O)[C@H](C)NC(=O)[C@H](Cc2c[nH]cn2)NC(=O)[C@H](CO[C@H]2O[C@H](CO)[C@@H](O)[C@H](O)[C@@H]2O)NC(=O)[C@H](CCC(N)=O)NC(=O)[C@@H](N)[C@@H](C)O)CSSC[C@@H]2NC(=O)[C@H]([C@@H](C)O)NC(=O)[C@H]([C@@H](C)O)NC(=O)CNC(=O)[C@H](CO)NC(=O)[C@H](C)NC(=O)[C@H](CSSC[C@@H](C(=O)N[C@@H](CC(C)C)C(=O)O)NC(=O)[C@H](CCC(N)=O)NC(=O)[C@H](CO)NC(=O)[C@H](Cc3ccc(O)cc3)NC(=O)[C@H](Cc3ccc(O)cc3)NC(=O)[C@@H]3CCCN3C(=O)[C@H](CC(N)=O)NC(=O)[C@H](CC(C)C)NC(=O)[C@H](C(C)C)NC(=O)[C@H](CCC(N)=O)NC2=O)NC(=O)[C@H](C(C)C)NC(=O)[C@H]([C@@H](C)O)NC(=O)[C@@H]2CCCN2C(=O)CNC(=O)[C@H](CO)NC(=O)[C@H](Cc2ccc(O)cc2)NC(=O)CNC1=O` [CBM variant 11] (H-TQS(αMan)HAGQCGGIGYSGPTVCASGTTCQVLNPYYSQCL-OH; disulfide 8-25, 19-35), the “Change in Half-Life” value is 6 min and the half-life is 10.8 ± 1.8 min.
`CC[C@H](C)[C@@H]1NC(=O)CNC(=O)CNC(=O)[C@@H](NC(=O)[C@H](CCC(N)=O)NC(=O)CNC(=O)[C@H](Cc2ccc(O)cc2)NC(=O)[C@H](Cc2c[nH]cn2)NC(=O)[C@@H](NC(=O)[C@H](CCC(N)=O)NC(=O)[C@@H](N)[C@@H](C)O)[C@@H](C)O)CSSC[C@@H]2NC(=O)[C@H]([C@@H](C)O)NC(=O)[C@H]([C@@H](C)O)NC(=O)CNC(=O)[C@H](CO)NC(=O)[C@H](C)NC(=O)[C@H](CSSC[C@@H](C(=O)N[C@@H](CC(C)C)C(=O)O)NC(=O)[C@H](CCC(N)=O)NC(=O)[C@H](CO)NC(=O)[C@H](Cc3ccc(O)cc3)NC(=O)[C@H](Cc3ccc(O)cc3)NC(=O)[C@@H]3CCCN3C(=O)[C@H](CC(N)=O)NC(=O)[C@H](CC(C)C)NC(=O)[C@H](C(C)C)NC(=O)[C@H](CCC(N)=O)NC2=O)NC(=O)[C@H](C(C)C)NC(=O)[C@H]([C@@H](C)O)NC(=O)[C@@H]2CCCN2C(=O)CNC(=O)[C@H](CO)NC(=O)[C@H](Cc2ccc(O)cc2)NC(=O)CNC1=O` [CBM variant 12] (H-TQTHYGQCGGIGYSGPTVCASGTTCQVLNPYYSQCL-OH; disulfide 8-25, 19-35) had a half-life of 21.6 ± 1.2 min.
For `CC[C@H](C)[C@@H]1NC(=O)CNC(=O)CNC(=O)[C@@H](NC(=O)[C@H](CCC(N)=O)NC(=O)CNC(=O)[C@H](Cc2ccc(O)cc2)NC(=O)[C@H](Cc2c[nH]cn2)NC(=O)[C@@H](NC(=O)[C@H](CCC(N)=O)NC(=O)[C@@H](N)[C@@H](C)O)[C@@H](C)O[C@H]2O[C@H](CO)[C@@H](O)[C@H](O)[C@@H]2O)CSSC[C@@H]2NC(=O)[C@H]([C@@H](C)O)NC(=O)[C@H]([C@@H](C)O)NC(=O)CNC(=O)[C@H](CO)NC(=O)[C@H](C)NC(=O)[C@H](CSSC[C@@H](C(=O)N[C@@H](CC(C)C)C(=O)O)NC(=O)[C@H](CCC(N)=O)NC(=O)[C@H](CO)NC(=O)[C@H](Cc3ccc(O)cc3)NC(=O)[C@H](Cc3ccc(O)cc3)NC(=O)[C@@H]3CCCN3C(=O)[C@H](CC(N)=O)NC(=O)[C@H](CC(C)C)NC(=O)[C@H](C(C)C)NC(=O)[C@H](CCC(N)=O)NC2=O)NC(=O)[C@H](C(C)C)NC(=O)[C@H]([C@@H](C)O)NC(=O)[C@@H]2CCCN2C(=O)CNC(=O)[C@H](CO)NC(=O)[C@H](Cc2ccc(O)cc2)NC(=O)CNC1=O` [CBM variant 13] (H-TQT(αMan)HYGQCGGIGYSGPTVCASGTTCQVLNPYYSQCL-OH; disulfide 8-25, 19-35), the “Change in Half-Life” value stood at 46.8 min and the half-life was 68.4 ± 10.8 min.
Consider `CC[C@H](C)[C@@H]1NC(=O)CNC(=O)CNC(=O)[C@@H](NC(=O)[C@H](CCC(N)=O)NC(=O)CNC(=O)[C@H](Cc2ccc(O)cc2)NC(=O)[C@H](Cc2c[nH]cn2)NC(=O)[C@H](CS)NC(=O)[C@H](CCC(N)=O)NC(=O)[C@@H](N)[C@@H](C)O)CSSC[C@@H]2NC(=O)[C@H]([C@@H](C)O)NC(=O)[C@H]([C@@H](C)O)NC(=O)CNC(=O)[C@H](CO)NC(=O)[C@H](C)NC(=O)[C@H](CSSC[C@@H](C(=O)N[C@@H](CC(C)C)C(=O)O)NC(=O)[C@H](CCC(N)=O)NC(=O)[C@H](CO)NC(=O)[C@H](Cc3ccc(O)cc3)NC(=O)[C@H](Cc3ccc(O)cc3)NC(=O)[C@@H]3CCCN3C(=O)[C@H](CC(N)=O)NC(=O)[C@H](CC(C)C)NC(=O)[C@H](C(C)C)NC(=O)[C@H](CCC(N)=O)NC2=O)NC(=O)[C@H](C(C)C)NC(=O)[C@H]([C@@H](C)O)NC(=O)[C@@H]2CCCN2C(=O)CNC(=O)[C@H](CO)NC(=O)[C@H](Cc2ccc(O)cc2)NC(=O)CNC1=O` [CBM variant 14] (H-TQCHYGQCGGIGYSGPTVCASGTTCQVLNPYYSQCL-OH; disulfide 8-25, 19-35), for which the half-life was 10.8 ± 2.4 min.
`CC[C@H](C)[C@@H]1NC(=O)CNC(=O)CNC(=O)[C@@H](NC(=O)[C@H](CCC(N)=O)NC(=O)CNC(=O)[C@H](Cc2ccc(O)cc2)NC(=O)[C@H](Cc2c[nH]cn2)NC(=O)[C@H](CS[C@H]2O[C@H](CO)[C@@H](O)[C@H](O)[C@@H]2O)NC(=O)[C@H](CCC(N)=O)NC(=O)[C@@H](N)[C@@H](C)O)CSSC[C@@H]2NC(=O)[C@H]([C@@H](C)O)NC(=O)[C@H]([C@@H](C)O)NC(=O)CNC(=O)[C@H](CO)NC(=O)[C@H](C)NC(=O)[C@H](CSSC[C@@H](C(=O)N[C@@H](CC(C)C)C(=O)O)NC(=O)[C@H](CCC(N)=O)NC(=O)[C@H](CO)NC(=O)[C@H](Cc3ccc(O)cc3)NC(=O)[C@H](Cc3ccc(O)cc3)NC(=O)[C@@H]3CCCN3C(=O)[C@H](CC(N)=O)NC(=O)[C@H](CC(C)C)NC(=O)[C@H](C(C)C)NC(=O)[C@H](CCC(N)=O)NC2=O)NC(=O)[C@H](C(C)C)NC(=O)[C@H]([C@@H](C)O)NC(=O)[C@@H]2CCCN2C(=O)CNC(=O)[C@H](CO)NC(=O)[C@H](Cc2ccc(O)cc2)NC(=O)CNC1=O` [CBM variant 15] (H-TQC(αMan)HYGQCGGIGYSGPTVCASGTTCQVLNPYYSQCL-OH; disulfide 8-25, 19-35): the “Change in Half-Life” value stood at 1.2 min and the half-life was 12 ± 1.8 min.
Molecule `CC[C@H](C)[C@@H]1NC(=O)CNC(=O)CNC(=O)[C@@H](NC(=O)[C@H](CCC(N)=O)NC(=O)CNC(=O)[C@H](Cc2ccc(O)cc2)NC(=O)[C@H](Cc2c[nH]cn2)NC(=O)[C@@H](CO)NC(=O)[C@H](CCC(N)=O)NC(=O)[C@@H](N)[C@@H](C)O)CSSC[C@@H]2NC(=O)[C@H]([C@@H](C)O)NC(=O)[C@H]([C@@H](C)O)NC(=O)CNC(=O)[C@H](CO)NC(=O)[C@H](C)NC(=O)[C@H](CSSC[C@@H](C(=O)N[C@@H](CC(C)C)C(=O)O)NC(=O)[C@H](CCC(N)=O)NC(=O)[C@H](CO)NC(=O)[C@H](Cc3ccc(O)cc3)NC(=O)[C@H](Cc3ccc(O)cc3)NC(=O)[C@@H]3CCCN3C(=O)[C@H](CC(N)=O)NC(=O)[C@H](CC(C)C)NC(=O)[C@H](C(C)C)NC(=O)[C@H](CCC(N)=O)NC2=O)NC(=O)[C@H](C(C)C)NC(=O)[C@H]([C@@H](C)O)NC(=O)[C@@H]2CCCN2C(=O)CNC(=O)[C@H](CO)NC(=O)[C@H](Cc2ccc(O)cc2)NC(=O)CNC1=O` [CBM variant 16] (H-TQ[dS]HYGQCGGIGYSGPTVCASGTTCQVLNPYYSQCL-OH; disulfide 8-25, 19-35) gave a half-life of 11.4 ± 2.4 min.
